Experimental data taken from the NIST ThermoML archive (doi:10.1016/j.tca.2009.03.005).
± gives the expanded uncertainty stated by the source.

Columns and labels:
[1] = molar heat capacity at constant pressure; conditions: 101.33 kPa
[2] = Molar enthalpy of transition or fusion; conditions: Crystal 2; DSC
[3] = DTA

O=N[O-].[Na+] [sodium nitrite]
[1]
Conditions | molar heat capacity at constant pressure [J/K/mol]
273.15 K, Crystal 3, Small sample (50 mg) DSC | 85.2 ± 5.2
278.15 K, Crystal 3, Small sample (50 mg) DSC | 85.3 ± 5.2
283.15 K, Crystal 3, Small sample (50 mg) DSC | 86 ± 5
288.15 K, Crystal 3, Small sample (50 mg) DSC | 86.6 ± 5.2
293.15 K, Crystal 3, Small sample (50 mg) DSC | 87.3 ± 5.2
298.15 K, Crystal 3, Small sample (50 mg) DSC | 88.1 ± 5.2
303.15 K, Crystal 3, Large sample (1 g) DSC | 85.3 ± 4.2
303.15 K, Crystal 3, Small sample (50 mg) DSC | 88.8 ± 5.2
308.15 K, Crystal 3, Small sample (50 mg) DSC | 90.1 ± 5.2
313.15 K, Crystal 3, Small sample (50 mg) DSC | 90.8 ± 5.2
318.15 K, Crystal 3, Small sample (50 mg) DSC | 91.8 ± 5.2
323.15 K, Crystal 3, Large sample (1 g) DSC | 89.3 ± 4.4
323.15 K, Crystal 3, Small sample (50 mg) DSC | 92.8 ± 5.2
328.15 K, Crystal 3, Small sample (50 mg) DSC | 94 ± 5
333.15 K, Crystal 3, Small sample (50 mg) DSC | 95.3 ± 5.2
338.15 K, Crystal 3, Small sample (50 mg) DSC | 96.7 ± 5.2
343.15 K, Crystal 3, Large sample (1 g) DSC | 94.1 ± 4.6
343.15 K, Crystal 3, Small sample (50 mg) DSC | 98 ± 5
348.15 K, Crystal 3, Small sample (50 mg) DSC | 99.8 ± 5.2
353.15 K, Crystal 3, Small sample (50 mg) DSC | 101.3 ± 5.2
358.15 K, Crystal 3, Small sample (50 mg) DSC | 102.5 ± 5.2
363.15 K, Crystal 3, Large sample (1 g) DSC | 99.9 ± 4.9
363.15 K, Crystal 3, Small sample (50 mg) DSC | 103.5 ± 5.2
368.15 K, Crystal 3, Small sample (50 mg) DSC | 106.2 ± 5.3
373.15 K, Crystal 3, Small sample (50 mg) DSC | 108.2 ± 5.3
378.15 K, Crystal 3, Small sample (50 mg) DSC | 109.9 ± 5.3
383.15 K, Crystal 3, Large sample (1 g) DSC | 107.8 ± 5.3
383.15 K, Crystal 3, Small sample (50 mg) DSC | 111.6 ± 5.3
388.15 K, Crystal 3, Small sample (50 mg) DSC | 115.3 ± 5.3
393.15 K, Crystal 3, Small sample (50 mg) DSC | 118.2 ± 5.3
398.15 K, Crystal 3, Small sample (50 mg) DSC | 121.5 ± 5.3
403.15 K, Crystal 3, Large sample (1 g) DSC | 119.3 ± 5.9
403.15 K, Crystal 3, Small sample (50 mg) DSC | 124.4 ± 5.3
408.15 K, Crystal 3, Small sample (50 mg) DSC | 130 ± 6
413.15 K, Crystal 3, Small sample (50 mg) DSC | 135.6 ± 5.8
418.15 K, Crystal 3, Small sample (50 mg) DSC | 142.7 ± 6.1
419.15 K, Crystal 3, Small sample (50 mg) DSC | 144.39 ± 6.1
420.15 K, Crystal 3, Small sample (50 mg) DSC | 146.16 ± 6.2
421.15 K, Crystal 3, Small sample (50 mg) DSC | 148.05 ± 6.3
422.15 K, Crystal 3, Small sample (50 mg) DSC | 150.11 ± 6.4
423.15 K, Crystal 3, Small sample (50 mg) DSC | 152.4 ± 6.5
424.15 K, Crystal 3, Small sample (50 mg) DSC | 154.72 ± 6.6
425.15 K, Crystal 3, Small sample (50 mg) DSC | 157.33 ± 6.7
426.15 K, Crystal 3, Small sample (50 mg) DSC | 160.25 ± 6.8
427.15 K, Crystal 3, Small sample (50 mg) DSC | 163.31 ± 6.9
428.15 K, Crystal 3, Small sample (50 mg) DSC | 166.7 ± 7.1
429.15 K, Crystal 3, Small sample (50 mg) DSC | 170.6 ± 7.2
430.15 K, Crystal 3, Small sample (50 mg) DSC | 175.1 ± 7.4
431.15 K, Crystal 3, Small sample (50 mg) DSC | 180.4 ± 7.7
437.25 K, Crystal 2, Small sample (50 mg) DSC | 215.4 ± 11
437.35 K, Crystal 2, Small sample (50 mg) DSC | 213.7 ± 11
437.45 K, Crystal 2, Small sample (50 mg) DSC | 213.5 ± 11
437.55 K, Crystal 2, Small sample (50 mg) DSC | 213.7 ± 11
437.75 K, Crystal 2, Small sample (50 mg) DSC | 215.5 ± 11
437.85 K, Crystal 2, Small sample (50 mg) DSC | 217.1 ± 11
437.95 K, Crystal 2, Small sample (50 mg) DSC | 220.4 ± 12
438.05 K, Crystal 2, Small sample (50 mg) DSC | 223.4 ± 12
438.15 K, Crystal 2, Small sample (50 mg) DSC | 223.6 ± 12
468.15 K, Crystal 1, Small sample (50 mg) DSC | 129 ± 6.7
473.15 K, Crystal 1, Small sample (50 mg) DSC | 129.8 ± 6.8
478.15 K, Crystal 1, Small sample (50 mg) DSC | 130.8 ± 6.8
483.15 K, Crystal 1, Large sample (1 g) DSC | 131.6 ± 6.5
483.15 K, Crystal 1, Small sample (50 mg) DSC | 131.9 ± 6.9
488.15 K, Crystal 1, Small sample (50 mg) DSC | 133.2 ± 7
493.15 K, Crystal 1, Small sample (50 mg) DSC | 134.7 ± 7
498.15 K, Crystal 1, Small sample (50 mg) DSC | 136 ± 7.1
503.15 K, Crystal 1, Large sample (1 g) DSC | 138.7 ± 6.8
503.15 K, Crystal 1, Small sample (50 mg) DSC | 137.8 ± 7.2
508.15 K, Crystal 1, Small sample (50 mg) DSC | 140 ± 7.3
513.15 K, Crystal 1, Small sample (50 mg) DSC | 142.4 ± 7.5
518.15 K, Crystal 1, Small sample (50 mg) DSC | 145.2 ± 7.6
521.15 K, Crystal 1, Small sample (50 mg) DSC | 147.7 ± 7.7
522.15 K, Crystal 1, Small sample (50 mg) DSC | 148.5 ± 7.8
523.15 K, Crystal 1, Large sample (1 g) DSC | 148.8 ± 7.3
523.15 K, Crystal 1, Small sample (50 mg) DSC | 148.9 ± 7.8
524.15 K, Crystal 1, Small sample (50 mg) DSC | 149.8 ± 7.8
525.15 K, Crystal 1, Small sample (50 mg) DSC | 150.9 ± 7.9
526.15 K, Crystal 1, Small sample (50 mg) DSC | 152 ± 8
527.15 K, Crystal 1, Small sample (50 mg) DSC | 153 ± 8
528.15 K, Crystal 1, Small sample (50 mg) DSC | 153.2 ± 8
529.15 K, Crystal 1, Small sample (50 mg) DSC | 155 ± 8.1
530.15 K, Crystal 1, Small sample (50 mg) DSC | 156 ± 8.2
531.15 K, Crystal 1, Small sample (50 mg) DSC | 157.5 ± 8.2
532.15 K, Crystal 1, Small sample (50 mg) DSC | 158.7 ± 8.3
533.15 K, Crystal 1, Large sample (1 g) DSC | 161.2 ± 7.9
533.15 K, Crystal 1, Small sample (50 mg) DSC | 160.2 ± 8.4
534.15 K, Crystal 1, Small sample (50 mg) DSC | 161.8 ± 8.5
535.15 K, Crystal 1, Small sample (50 mg) DSC | 163.1 ± 8.5
536.15 K, Crystal 1, Small sample (50 mg) DSC | 165.7 ± 8.7
537.15 K, Crystal 1, Small sample (50 mg) DSC | 168 ± 8.8
538.15 K, Crystal 1, Small sample (50 mg) DSC | 169.8 ± 8.9
539.15 K, Crystal 1, Small sample (50 mg) DSC | 173.2 ± 9.1
540.15 K, Crystal 1, Small sample (50 mg) DSC | 176.4 ± 9.2

[1], Liquid, Small sample (50 mg) DSC
Conditions | molar heat capacity at constant pressure [J/K/mol]
562.15 K | 116.8 ± 6.1
563.15 K | 110 ± 5.8
564.15 K | 110.2 ± 5.8
565.15 K | 109.9 ± 5.8
566.15 K | 110.2 ± 5.8
568.15 K | 110.9 ± 5.8
573.15 K | 111.9 ± 5.9
578.15 K | 112.3 ± 5.9
583.15 K | 112.6 ± 5.9

Conditions | Molar enthalpy of transition or fusion [kcal/mol]
[2] | 3.32 ± 0.0956

[3]
Conditions | Normal melting temperature [°C] | Triple point temperature [K]
Crystal 1 | 280.1 ± 0.5 | –
Crystal 2 | – | 438.7 ± 0.4
Crystal 3 | – | 437.2 ± 0.4
